Here are results for 7 compounds from PMC2993481, “Rat cytochromes P450 oxidize 3-aminobenzanthrone, a human metabolite of the carcinogenic environmental pollutant 3-nitrobenzanthrone” (Interdisciplinary Toxicology, 2010).

The subject of data set [1] is Salmonella. Also noted: method as in Enya et al., [1997]; Seidel et al., [2002]; Arlt, [2005]. The conditions noted are these: ref Enya et al., [1997]; Seidel et al., [2002]; Arlt, [2005]; cited from earlier work.
The subject of data set [2] is rats. Also noted: method as in Seidel et al., [2002]; Arlt, [2005]; Nagy et al., [2005]. To be noted: intratracheal instillation, ref Seidel et al., [2002], Arlt, [2005], Nagy et al.; cited from earlier work.
Data set [3] has as its system CYP1A1/2. The experiment in a line: Inhibition of 3-ABA oxidation by CYPs in hepatic microsomes of β-naphthoflavone-pretreated rats. The data set is classed as biochemical. The conditions noted are these: male, Wistar, rat, liver microsomes from β-naphthoflavone-pretreated rats, pH 7.4, probe 3-ABA (5-50 µM), hepatic microsomes from rats pretreated with β-naphtoflavone (CYP1A1/2), inhibitor 0.01–0.1 mM, 37 °C.
Method: The HPLC was performed with a reversed phase column (Nucleosil 100-5 C18, Macherey-Nagel, Duren, Germany, 25 cm×4.6 mm, 5 µm) proceeded by a C-18 guard column, using isocratic elution conditions of 70% methanol in distilled water with a flow rate of 0.6 ml/min.
Inhibitors were dissolved in 7.5 µl of methanol or water (in the case of diethyldithiocarbamate), to yield final concentrations of 0.01–0.1 mM in the incubation mixtures. […] After the incubation, 3-ABA and its metabolites were extracted and analyzed by HPLC as described above.

Details of data set [4]: method as in Seidel et al., [2002]. To be noted: smoking and nonsmoking salt mining workers exposed to diesel emissions; ref Seidel et al., [2002]; cited from earlier work.
The subject of data set [5] is Control rat hepatic microsomes (CYPs). The experiment in a line: Inhibition of 3-ABA oxidation by CYPs in hepatic microsomes of untreated (control) rats. Format: biochemical. The conditions noted are these: hepatic microsomes from control rats; inhibitor 0.01–0.1 mM, 20 min, 37 °C. Here is the method:
The study was conducted in accordance with the Regulations for the Care and Use of Laboratory Animals (311/1997, Ministry of Agriculture, Czech Republic), which complies with Declaration of Helsinki.

The test system of data set [6] is Hepatic microsomes from rats pretreated with Phenobarbital (CYP2B). Put plainly: Inhibition of 3-ABA oxidation by CYPs in hepatic microsomes of phenobarbital-pretreated rats. Format: biochemical, rat. To be noted: inhibitor 0.01–0.1 mM, 20 min, 37 °C. Here is the method:
(§1) The study was conducted in accordance with the Regulations for the Care and Use of Laboratory Animals (311/1997, Ministry of Agriculture, Czech Republic), which complies with Declaration of Helsinki. Microsomes from livers of ten male untreated Wistar rats and those of rats pretreated with β-NF (Sigma, UK) and PB were prepared by the procedure described previously (Stiborová et al., [2002]). Rat liver microsomes contained 0.6 nmol CYP/mg protein. Hepatic microsomes of rats treated with β-NF and PB contained 1.3 and 1.5 nmol CYP/mg proteins, respectively.
Incubation mixtures, in a final volume of 500 µl, consisted of 100 mM potassium phosphate buffer (pH 7.4), 10 mM NADPH, 0.5 mg of microsomal protein and 5–50 µM 3-ABA (dissolved in dimethyl sulfoxide, DMSO). The reaction was initiated by adding 3-ABA. Incubations with rat microsomes were carried out at 37 °C for 5–180 minutes. […]
The following chemicals were used to inhibit 3-ABA oxidation in the presence of rat hepatic microsomes: α-naphthoflavone (α-NF), which inhibits CYP1A1 and 1A2, furafylline, which inhibits CYP1A2, diamantane, an inhibitor of CYP2B, sulfophenazole, which inhibits CYP2C and diethyldithiocarbamate, which inhibits CYP2E1 (Rendic and DiCarlo, [1997]). […] After the incubation, 3-ABA and its metabolites were extracted and analyzed by HPLC as described above.

For data set [7], the system named is rat hepatic CYP enzymes in microsomes. Put plainly: Oxidation of 3-ABA by rat hepatic microsomes, metabolites separated by HPLC. The conditions noted are these: NADPH, 37 °C. The data set is classed as in vitro ADME. Here is the method:
as §1
Incubation mixtures, in a final volume of 500 µl, consisted of 100 mM potassium phosphate buffer (pH 7.4), 10 mM NADPH, 0.5 mg of microsomal protein and 5–50 µM 3-ABA (dissolved in dimethyl sulfoxide, DMSO). The reaction was initiated by adding 3-ABA. Incubations with rat microsomes were carried out at 37 °C for 5–180 minutes. Control incubations were carried out either (1) without the enzymatic system (microsomes) or (2) with microsomes and 3-ABA, but without NADPH. Then, 5 µl of 1 mM phenacetine in methanol was added as an internal standard and 3-ABA and its metabolites were extracted twice with ethyl acetate (2 × 1.5 ml). The extracts were evaporated to dryness; residues were dissolved in 30 µl of methanol and subjected to reverse-phase (RP)-HPLC to evaluate the amounts of residual 3-ABA and its metabolites. […]

On to `O=C1c2ccccc2-c2ccc([N+](=O)[O-])c3cccc1c23` [3-NBA, 3-nitro-7H-benz[de]anthracen-7-one], for which the “Mutagenic potency in the Ames Salmonella assay” value in data set [1] was “extremely high mutagenic potency”. Also, in data set [2], the Carcinogenicity in rats entry is given as “carcinogenic in rats, causing lung tumours”.

Take `O=c1cc(-c2ccccc2)oc2c1ccc1ccccc12` [α-naphtoflavone, α-naphthoflavone]: the IC50 at 20 min in data set [3] came to 10.9 µM.

For the compound `Nc1ccc2ccc3cccc4ccc1c2c34` [1-aminopyrene], the “Concentration detected in urine” value in data set [4] is given as 2–200 ng/24 h urine.

Take `CCN(CC)C(=S)S` [DDTC, diethyldithiocarbamate]: it took 96.8 µM to reach half-maximal inhibition in data set [5] (IC50).

As to `Cc1nc2c([nH]1)c(=O)n(C)c(=O)n2Cc1ccco1` [Furafylline, furafylline], the half-maximal inhibitory concentration (IC50) at 20 min in data set [3] is 16.6 µM.

Take `C1C2CC3C4CC5CC(C14)C(C2)C3C5` [Diamantane, diamantane]: the half-inhibitory concentration (IC50) in data set [6] stood at 0.9 µM.

Regarding `Nc1ccc2c3c(cccc13)C(=O)c1ccccc1-2` [3-ABA, 3-Aminobenzanthrone], the “Metabolites formed by oxidation in rat hepatic microsomes” value in data set [7] is reported as “up to three metabolites”. Further, in data set [4], the “Concentration detected in urine” value is on record as 1–143 ng/24 h urine.
